The source of these data is ChEMBL document CHEMBL5096169, “Recent progress in agents targeting polo-like kinases: Promising therapeutic strategies” (Eur J Med Chem, 2021).

For test [1], the target named is T1, Serine/threonine-protein kinase PLK1 (Homo sapiens, UniProt P53350). Nature of the test: Inhibition of human PLK1-PBD (326 to 603 residues) expressed in Escherichia coli BL21(DE3) rosetta cells using 5-carboxyfluorescein-GPMQSpTPLNG-OH as substrate preincubated for 1 hr followed by substrate addition and measured after 1 to 2 hr by fluorescence polarization assay.
T1 sequence (P53350 whole entry, the tested form may be a part): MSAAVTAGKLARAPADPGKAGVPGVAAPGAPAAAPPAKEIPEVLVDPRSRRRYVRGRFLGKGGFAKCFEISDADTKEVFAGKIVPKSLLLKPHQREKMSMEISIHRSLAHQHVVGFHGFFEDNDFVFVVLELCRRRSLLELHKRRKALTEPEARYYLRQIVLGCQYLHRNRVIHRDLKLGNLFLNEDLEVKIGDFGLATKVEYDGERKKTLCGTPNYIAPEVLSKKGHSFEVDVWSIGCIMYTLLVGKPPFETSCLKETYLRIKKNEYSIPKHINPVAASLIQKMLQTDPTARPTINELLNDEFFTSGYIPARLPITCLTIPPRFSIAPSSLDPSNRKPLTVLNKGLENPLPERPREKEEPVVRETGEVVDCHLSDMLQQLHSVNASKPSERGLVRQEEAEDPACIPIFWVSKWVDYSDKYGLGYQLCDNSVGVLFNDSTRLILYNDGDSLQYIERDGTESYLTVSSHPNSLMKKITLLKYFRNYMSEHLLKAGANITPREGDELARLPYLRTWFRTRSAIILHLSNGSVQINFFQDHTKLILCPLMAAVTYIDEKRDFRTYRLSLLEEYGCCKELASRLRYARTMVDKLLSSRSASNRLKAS

Test [2] deals with T1, Serine/threonine-protein kinase PLK1. Put plainly: Binding affinity to human PLK1-PBD (326 to 603 residues) expressed in Escherichia coli BL21(DE3) rosetta cells by microscale thermophoresis analysis.
The next test relates to CCRF-CEM. Nature of the test: Cytotoxicity against human CCRF-CEM cells assessed as reduction in cell viability incubated for 72 hrs by resazurin microplate assay. It is filed as functional, cell-based.
In test [3] the target is Serine/threonine-protein kinase PLK3 (Homo sapiens, UniProt Q9H4B4). Nature of the test: Inhibition of recombinant N-terminal MBP-tagged human PLK3-PBD expressed in Escherichia coli BL21(DE3) rosetta cells using 5-carboxyfluorescein-GPLATSpTPKNG-NH2 as substrate preincubated for 1 hr followed by substrate addition and measured after 1 hr by fluorescence polarization assay.
Sequence of Serine/threonine-protein kinase PLK3 (Q9H4B4 whole entry): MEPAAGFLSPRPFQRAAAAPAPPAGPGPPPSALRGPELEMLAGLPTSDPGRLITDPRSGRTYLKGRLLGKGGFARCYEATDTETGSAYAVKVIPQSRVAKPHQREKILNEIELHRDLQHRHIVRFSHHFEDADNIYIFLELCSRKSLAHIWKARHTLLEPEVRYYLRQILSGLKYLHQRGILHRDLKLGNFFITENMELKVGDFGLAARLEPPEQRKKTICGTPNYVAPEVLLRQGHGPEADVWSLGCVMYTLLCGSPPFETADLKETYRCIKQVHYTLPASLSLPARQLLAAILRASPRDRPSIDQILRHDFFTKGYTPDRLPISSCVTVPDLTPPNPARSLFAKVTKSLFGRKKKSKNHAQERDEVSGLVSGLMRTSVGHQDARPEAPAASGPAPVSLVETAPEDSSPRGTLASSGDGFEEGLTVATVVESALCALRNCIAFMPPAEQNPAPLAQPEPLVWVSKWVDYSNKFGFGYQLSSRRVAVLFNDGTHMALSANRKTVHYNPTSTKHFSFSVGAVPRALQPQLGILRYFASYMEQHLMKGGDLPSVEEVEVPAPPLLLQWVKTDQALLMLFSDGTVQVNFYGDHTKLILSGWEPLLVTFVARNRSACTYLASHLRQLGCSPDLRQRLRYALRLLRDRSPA

Test [4] has as its target T1, Serine/threonine-protein kinase PLK1. Nature of the test: Inhibition of human PLK1-PBD expressed in Escherichia coli BL21(DE3) rosetta cells using 5-carboxyfluorescein-GPMQSpTPLNG-OH as substrate preincubated for 1 hr followed by substrate addition and measured after 1 hr by fluorescence polarization assay.
For test [5], the target named is Serine/threonine-protein kinase PLK2 (Homo sapiens, UniProt Q9NYY3). Nature of the test: Inhibition of recombinant C-terminal 6His-tagged human PLK2-PBD expressed in Escherichia coli BL21(DE3) rosetta cells using 5-carboxyfluorescein-GPMQTSpTPKNG-OH as substrate preincubated for 1 hr followed by substrate addition and measured after 1 hr by fluorescence polarization assay.
Sequence of Serine/threonine-protein kinase PLK2 (Q9NYY3 whole entry): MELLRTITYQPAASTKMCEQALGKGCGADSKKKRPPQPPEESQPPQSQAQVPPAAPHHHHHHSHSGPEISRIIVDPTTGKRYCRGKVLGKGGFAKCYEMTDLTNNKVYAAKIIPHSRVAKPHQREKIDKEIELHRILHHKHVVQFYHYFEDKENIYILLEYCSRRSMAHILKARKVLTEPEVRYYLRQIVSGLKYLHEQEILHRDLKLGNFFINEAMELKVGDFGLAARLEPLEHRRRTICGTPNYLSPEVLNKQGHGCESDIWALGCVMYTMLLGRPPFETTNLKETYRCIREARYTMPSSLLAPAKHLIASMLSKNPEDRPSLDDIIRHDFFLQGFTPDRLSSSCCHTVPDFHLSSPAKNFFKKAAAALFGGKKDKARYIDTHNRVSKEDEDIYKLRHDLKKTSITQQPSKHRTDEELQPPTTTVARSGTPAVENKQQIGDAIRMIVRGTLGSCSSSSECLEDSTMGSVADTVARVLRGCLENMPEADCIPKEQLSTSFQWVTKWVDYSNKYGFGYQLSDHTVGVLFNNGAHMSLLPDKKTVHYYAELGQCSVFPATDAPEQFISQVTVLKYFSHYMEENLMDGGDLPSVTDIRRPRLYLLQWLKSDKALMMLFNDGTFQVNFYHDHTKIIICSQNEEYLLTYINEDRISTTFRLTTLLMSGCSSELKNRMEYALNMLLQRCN

The next test concerns ADR5000 cell line. Put plainly: Cytotoxicity against human CEM/ADR5000 cells assessed as reduction in cell viability incubated for 72 hrs by resazurin microplate assay. The test is classed as functional, cell-based. The note with it: ADR5000, 72 h.
Another test relates to MOLM-13. Nature of the test: Antiproliferative activity against human MOLM-13 cells assessed as inhibition of cell proliferation incubated for 24 hrs by CCK-8 assay. It is filed as functional, cell-based. The note with it: MOLM-13, 24 h.
The test system of a further test is KG-1. Nature of the test: Antiproliferative activity against human KG-1 cells assessed as inhibition of cell proliferation incubated for 24 hrs by CCK-8 assay. The note with it: KG-1, 24 h. It is filed as functional, cell-based.
In test [6] the target is T1, Serine/threonine-protein kinase PLK1. Nature of the test: Inhibition of PLK1 (unknown origin).
The target is the same in test [7]. Nature of the test: Inhibition of PLK1-PBD (unknown origin) using FITC-GPMQSpTPLNG-OH as substrate measured after 30 mins by Fluorescence polarization assay.

Several values for one entry are separate records, joined by “and”; a condition that tells them apart may be missing. Equal entries are not always repeated.

Turning to `CCOC(=O)c1oc2ccccc2c1CBr`, the IC50 in test [1] stood at 16.4 µM. In test [2], binding was characterised by a dissociation constant (Kd) of 12.8 µM.

In the case of `C[C@@]12CN(Cc3cccc(C#N)c3)C[C@@](C)(C1)c1c(-c3ccc4ccccc4c3)ccc(=O)n1C2`, the concentration for half-maximal inhibition (IC50) in the test on CCRF-CEM was 11.4 µM; in test [3], over 100 µM; in test [4] it was 17.9 µM and 95.5 µM; in test [5], 95.5 µM; with ADR5000 cell line, 13.5 µM.

In the case of `CC[C@@H]1C(=O)N(C)c2cnc(Nc3ccc(C(=O)NCCOCCOCCOCCNc4cccc5c4C(=O)N(C4CCC(=O)NC4=O)C5=O)cc3OC)nc2N1C1CCCC1` (stereo partly specified), the IC50 stood at 6.21 nM in the test with MOLM-13 and 6.94 nM with KG-1.

As to `COc1cc2ncn(-c3cc(-c4cccc(C(F)(F)F)c4)c(C(N)=O)s3)c2cc1OC`, it took 2.2 nM to reach half-maximal inhibition in test [6] (IC50).

`CC(CC(=O)N[C@H](C(=O)N[C@@H](CO)C(=O)N[C@H](C(N)=O)[C@@H](C)OP(=O)(O)O)c1cncs1)NC(=O)c1ccc(CO)cc1` (single isomer, unassigned) had an IC50 in test [7] of 267 nM.
